Laboratory results reported in patent US11566007B2, “Ras inhibitors” (Revolution Medicines, Inc., priority 2019, dated 2023).

Tests used:
KRAS G13D = KRAS G13D (Homo sapiens (Human), UniProt P01116+P62937, G13D); test: Ras-Raf (BRAF RBD) disruption / FRET / MOA assay, KRAS G13D; assay type: biochemical; conditions: read-out: IC50* KRAS G13D FRET data
Method in brief: (§1)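 A 10-point, 3-fold dilution series topping at 30 μM final was incubated 3 h at 25° C with the Ras/cyclophilin A/BRAF RBD mixture.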

KRAS G12S = KRAS G12S (Homo sapiens (Human), UniProt P01116+P62937, G12S); test: Ras-Raf (BRAF RBD) disruption / FRET / MOA assay, KRAS G12S; assay type: biochemical; conditions: Ras-Raf disruption/FRET/MOA assay; class symbols; read-out: KRAS G12S FRET data IC50
Method in brief: as §1

NCI-H358 (K-Ras G12C) = test: CellTiter-Glo cell viability assay, NCI-H358; assay type: cell-based, human; conditions: Homo sapiens, NCI-H358, 120 h, NCI-H358, 5-day treatment; class symbols; read-out: Additional H358 Cell Viability assay data (K-Ras G12C, IC50)
Method in brief: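 Compounds were dispensed directly onto K-Ras mutant cells and incubated until day 5, then plates were equilibrated to room temperature for about 30 minutes before CellTiter-Glo luminescence. Signals were normalized as (sample/average DMSO)*100 and fitted by four-parameter logistic fit.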

KRAS G12D = KRAS G12D (Homo sapiens (Human), UniProt P01116+P62937, G12D); test: Ras-Raf (BRAF RBD) disruption / FRET / MOA assay, KRAS G12D; assay type: biochemical; conditions: Ras-Raf disruption/FRET/MOA assay; class symbols; read-out: KRAS G12D FRET data IC50
Method in brief: as §1

KRAS G12V = KRAS G12V (Homo sapiens (Human), UniProt P01116+P62937, G12V); test: Ras-Raf (BRAF RBD) disruption / FRET / MOA assay, KRAS G12V; assay type: biochemical; conditions: read-out: IC50* KRAS G12V FRET data
Method in brief: as §1

NRAS Q61K = NRAS Q61K (Homo sapiens (Human), UniProt P01111+P62937, Q61K); test: Ras-Raf (BRAF RBD) disruption / FRET / MOA assay, NRAS Q61K; assay type: biochemical; conditions: NRAS Q61K; Ras-Raf disruption/FRET/MOA assay; read-out: IC50* NRAS Q61K FRET data
Method in brief: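 Compounds (30 μM top final, 10-point 3-fold dilutions) incubated 3 h at 25° C with nucleotide-loaded Ras, cyclophilin A and BRAF RBD. Detection with 10 nM anti-His Eu-W1024 and 50 nM anti-GST allophycocyanin over another 1.5 h. Lowered TR-FRET ratio relative to DMSO wells gives IC50.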

Sequence of KRAS G12V (P01116-2 other isoform, or with tags, fused parts or gaps G12V): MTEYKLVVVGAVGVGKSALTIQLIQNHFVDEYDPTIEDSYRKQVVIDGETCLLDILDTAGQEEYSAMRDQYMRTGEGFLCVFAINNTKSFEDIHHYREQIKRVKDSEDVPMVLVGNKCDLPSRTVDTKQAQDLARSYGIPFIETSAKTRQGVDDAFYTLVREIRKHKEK
Sequence of KRAS G12V (P62937 whole entry): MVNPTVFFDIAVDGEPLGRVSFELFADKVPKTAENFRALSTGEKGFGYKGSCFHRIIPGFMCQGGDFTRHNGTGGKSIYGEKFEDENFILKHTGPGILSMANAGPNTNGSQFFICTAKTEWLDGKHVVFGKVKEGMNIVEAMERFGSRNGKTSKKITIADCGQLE
Sequence of NRAS Q61K (P01111 whole entry Q61K): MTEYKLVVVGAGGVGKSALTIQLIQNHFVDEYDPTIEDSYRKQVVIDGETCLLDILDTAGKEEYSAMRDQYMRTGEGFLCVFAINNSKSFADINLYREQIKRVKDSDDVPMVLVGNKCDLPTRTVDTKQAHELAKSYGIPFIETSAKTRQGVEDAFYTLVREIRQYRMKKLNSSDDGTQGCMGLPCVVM
Sequence of NRAS Q61K (P62937 whole entry): as the sequence (P62937 whole entry) above
Sequence of KRAS G12D (P01116-2 other isoform, or with tags, fused parts or gaps G12D): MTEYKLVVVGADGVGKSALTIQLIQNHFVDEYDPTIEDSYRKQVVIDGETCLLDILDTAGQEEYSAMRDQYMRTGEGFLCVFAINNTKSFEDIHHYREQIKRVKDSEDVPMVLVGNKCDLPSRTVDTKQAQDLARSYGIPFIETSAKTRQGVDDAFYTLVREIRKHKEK
Sequence of KRAS G12D (P62937 whole entry): as the sequence (P62937 whole entry) above
Sequence of KRAS G12S (P01116-2 other isoform, or with tags, fused parts or gaps G12S): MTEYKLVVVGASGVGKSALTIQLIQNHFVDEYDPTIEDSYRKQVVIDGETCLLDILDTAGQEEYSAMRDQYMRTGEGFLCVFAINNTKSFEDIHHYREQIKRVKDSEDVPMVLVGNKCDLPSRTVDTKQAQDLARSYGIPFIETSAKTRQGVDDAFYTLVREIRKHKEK
Sequence of KRAS G12S (P62937 whole entry): as the sequence (P62937 whole entry) above
Sequence of KRAS G13D (P01116-2 other isoform, or with tags, fused parts or gaps G13D): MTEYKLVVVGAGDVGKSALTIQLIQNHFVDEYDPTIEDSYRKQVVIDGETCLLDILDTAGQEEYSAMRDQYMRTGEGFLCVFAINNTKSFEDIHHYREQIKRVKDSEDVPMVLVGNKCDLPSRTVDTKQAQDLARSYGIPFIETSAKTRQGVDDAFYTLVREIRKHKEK
Sequence of KRAS G13D (P62937 whole entry): as the sequence (P62937 whole entry) above

Row | SMILES | IC50 (KRAS G13D) [nM] | IC50 (KRAS G12S) [nM] | IC50 (NCI-H358 (K-Ras G12C)) [nM] | IC50 (KRAS G12D) [nM] | IC50 (KRAS G12V) [nM] | IC50 (NRAS Q61K) [nM]
1 | CCn1c(-c2cccnc2[C@H](C)OC)c2c3cc(ccc31)-c1csc(n1)C[C@H](NC(=O)[C@@H](COC1CN(C(=O)C#CC(C)(C)N(C)C)C1)OC)C(=O)N1CCC[C@H](N1)C(=O)OCC(C)(C)C2 (atropisomer, axis not shown) [Example A660] | 1000 to 10000 | 1000 to 10000 | < 10 | 1000 to 10000 | 100 to 1000 | 100 to 1000
2 | C=CC(=O)N1CC[C@@]2(CCN2C(=O)N(C)[C@H](C(=O)N[C@H]2Cc3nc(cs3)-c3ccc4c(c3)c(c(-c3cccnc3[C@H](C)OC)n4CC)CC(C)(C)COC(=O)[C@@H]3CCCN(N3)C2=O)C(C)C)C1 (atropisomer, axis not shown) [Example A661] | 100 to 1000 | 100 to 1000 | < 10 | 1000 to 10000 | 1000 to 10000 | 10 to 100
3 | CCn1c(-c2cccnc2[C@H](C)OC)c2c3cc(ccc31)C1=CCCN(C1)C[C@H](NC(=O)[C@@H](COC1CN(C(=O)C#CC(C)(C)N(C)C)C1)C(C)C)C(=O)N1CCC[C@H](N1)C(=O)OCC(C)(C)C2 (atropisomer, axis not shown) [Example A663, (2R)-2-(((1-(4-(dimethylamino)-4-methylpent-2-ynoyl)405yridine405-3-yl)oxy)methyl)-N-((6^3S,4S)-1^1-ethyl-1^2-(2-((S)-1-methoxyethyl)405yridine-3-yl)-10,10-dimethyl-5,7-dioxo-2^1,2^2,2^3,2^6,6^1,6^2,6^3,6^4,6^5,6^6-decahydro-1^1H-8-oxa-1(5,3)-indola-6(1,3)-pyridazina-2(5,1)-pyridinacycloundecaphane-4-yl)-3-methylbutanamide] | > 10000 | > 10000 | < 10 | > 10000 | > 10000 | > 10000
4 | CCn1c(-c2cccnc2[C@H](C)OC)c2c3cc(ccc31)-c1csc(n1)C[C@H](NC(=O)[C@H](C(C)C)N(C)C(=O)N1CCN(C(=O)/C=C/CN3CCOCC3)C3(CC3)C1)C(=O)N1CCC[C@H](N1)C(=O)OCC(C)(C)C2 (atropisomer, axis not shown) [Example A665] | 100 to 1000 | 10 to 100 | < 10 | 100 to 1000 | 10 to 100 | 10 to 100
5 | CCn1c(-c2cccnc2[C@H](C)OC)c2c3cc(ccc31)-c1csc(n1)C[C@H](NC(=O)[C@H](C(C)C)N(C)C(=O)N1CCC3(CC1)CN(C(=O)/C=C/CN1CCOCC1)C3)C(=O)N1CCC[C@H](N1)C(=O)OCC(C)(C)C2 (atropisomer, axis not shown) [Example A669] | 100 to 1000 | 100 to 1000 | 10 to 100 | 100 to 1000 | 100 to 1000 | 10 to 100
6 | CCn1c(-c2cccnc2[C@H](C)OC)c2c3cc(ccc31)-c1csc(n1)C[C@H](NC(=O)[C@H](C(C)C)N(C)C(=O)N1CCC3(CC1)CN(C(=O)/C=C/CN1CCCCC1)C3)C(=O)N1CCC[C@H](N1)C(=O)OCC(C)(C)C2 (atropisomer, axis not shown) [Example A670] | 100 to 1000 | 100 to 1000 | 10 to 100 | 1000 to 10000 | 100 to 1000 | 100 to 1000
7 | C/C=C/C(=O)N1CC2(CCN(C(=O)N(C)[C@H](C(=O)N[C@H]3Cc4nc(cs4)-c4ccc5c(c4)c(c(-c4cccnc4[C@H](C)OC)n5CC)CC(C)(C)COC(=O)[C@@H]4CCCN(N4)C3=O)C(C)C)CC2)C1 (atropisomer, axis not shown) [Example A671] | 100 to 1000 | 100 to 1000 | 10 to 100 | 100 to 1000 | 100 to 1000 | 10 to 100
8 | CCn1c(-c2cccnc2[C@H](C)OC)c2c3cc(ccc31)-c1nc(co1)C[C@H](NC(=O)[C@@H](COC1CN(C(=O)C#CC(C)(C)N(C)C)C1)C(C)C)C(=O)N1CCC[C@H](N1)C(=O)OCC(C)(C)C2 (atropisomer, axis not shown) [Example A675, (2R)-2-(((1-(4-(dimethylamino)-4-methylpent-2-ynoyl)azetidin-3-yl)oxy)methyl)-N-((6^3S,4S,Z)-1^1-ethyl-1^2-(2-((S)-1-methoxyethyl)pyridin-3-yl)-10,10-dimethyl-5,7-dioxo-6^1,6^2,6^3,6^4,6^5,6^6-hexahydro-1^1H-8-oxa-2(2,4)-oxazola-1(5,3)-indola-6(1,3)-pyridazinacycloundecaphane-4-yl)-3-methylbutanamide] | > 10000 | > 10000 | < 10 | > 10000 | > 10000 | > 10000
9 | C=CC(=O)N1CCN(C(=O)N(C)[C@H](C(=O)N[C@H]2Cc3nc(cs3)-c3ccc4c(c3)c(c(-c3cccnc3[C@H](C)OC)n4CC(F)(F)F)CC(C)(C)COC(=O)[C@@H]3CCCN(N3)C2=O)C(C)C)CC12CC2 (atropisomer, axis not shown) [Example A679] | 100 to 1000 | 10 to 100 | 10 to 100 | 100 to 1000 | 10 to 100 | 10 to 100
10 | C=C(OC)C(=O)N1CC2(CCN(C(=O)N(C)[C@H](C(=O)N[C@H]3Cc4nc(cs4)-c4ccc5c(c4)c(c(-c4cccnc4[C@H](C)OC)n5CC)CC(C)(C)COC(=O)[C@@H]4CCCN(N4)C3=O)C(C)C)CC2)C1 (atropisomer, axis not shown) [Example A681] | 100 to 1000 | 100 to 1000 | 10 to 100 | 100 to 1000 | 100 to 1000 | 10 to 100
11 | C=C(F)C(=O)N1CC2(CCN(C(=O)N(C)[C@H](C(=O)N[C@H]3Cc4nc(cs4)-c4ccc5c(c4)c(c(-c4cccnc4[C@H](C)OC)n5CC)CC(C)(C)COC(=O)[C@@H]4CCCN(N4)C3=O)C(C)C)CC2)C1 (atropisomer, axis not shown) [Example A682] | 100 to 1000 | 100 to 1000 | 10 to 100 | 100 to 1000 | 100 to 1000 | 10 to 100
12 | C=CC(=O)N1CC2(CCN2C(=O)N(C)[C@H](C(=O)N[C@H]2Cc3cccc(c3)-c3ccc4c(c3)c(c(-c3cccnc3[C@H](C)OC)n4CC)CC(C)(C)COC(=O)[C@@H]3CCCN(N3)C2=O)C(C)C)C1 (atropisomer, axis not shown) [Example A684] | 100 to 1000 | 100 to 1000 | < 10 | 1000 to 10000 | 100 to 1000 | 100 to 1000
13 | C=CC(=O)N1C[C@H]2CN(C(=O)N(C)[C@H](C(=O)N[C@H]3Cc4nc(cs4)-c4ccc5c(c4)c(c(-c4cccnc4[C@H](C)OC)n5CC)CC(C)(C)COC(=O)[C@@H]4CCCN(N4)C3=O)C(C)C)[C@H]2C1 (atropisomer, axis not shown) [Example A686] | 100 to 1000 | 100 to 1000 | < 10 | 1000 to 10000 | 100 to 1000 | 10 to 100
14 | C=CC(=O)N1CC[C@H]2[C@@H](C1)CN2C(=O)N(C)[C@H](C(=O)N[C@H]1Cc2nc(cs2)-c2ccc3c(c2)c(c(-c2cccnc2[C@H](C)OC)n3CC)CC(C)(C)COC(=O)[C@@H]2CCCN(N2)C1=O)C(C)C (atropisomer, axis not shown) [Example A687] | 100 to 1000 | 100 to 1000 | 10 to 100 | 1000 to 10000 | 100 to 1000 | 10 to 100
15 | CCn1c(-c2cccnc2[C@H](C)OC)c2c3cc(ccc31)-c1csc(n1)C[C@H](NC(=O)C[C@@H]1COC3(CN(C(=O)C#CC(C)(C)N(C)C)C3)O1)C(=O)N1CCC[C@H](N1)C(=O)OCC(C)(C)C2 (atropisomer, axis not shown) [Example A691] | 1000 to 10000 | 1000 to 10000 | < 10 | 1000 to 10000 | 1000 to 10000 | 1000 to 10000
16 | CCn1c(-c2cccnc2[C@H](C)OC)c2c3cc(ccc31)-c1cnc(o1)C[C@H](NC(=O)[C@H](C(C)C)N(C)C(=O)[C@H]1CCN(C(=O)C#CC(C)(C)N(C)C)C1)C(=O)N1CCC[C@H](N1)C(=O)OCC(C)(C)C2 (atropisomer, axis not shown) [Example A692, (3S)-1-(4-(dimethylamino)-4-methylpent-2-ynoyl)-N-((2S)-1-(((6^3S,4S)-1^1-ethyl-1^2-(2-((S)-1-methoxyethyl)pyridin-3-yl)-10,10-dimethyl-5,7-dioxo-6^1,6^2,6^3,6^4,6^5,6^6-hexahydro-1^1H-8-oxa-2(5,2)-oxazola-1(5,3)-indola-6(1,3)-pyridazinacycloundecaphane-4-yl)amino)-3-methyl-1-oxobutan-2-yl)-N-methylpyrrolidine-3-carboxamide] | > 10000 | 1000 to 10000 | < 10 | > 10000 | 1000 to 10000 | > 10000
